One test has as its target T1, P2X7 receptors (Mus musculus, UniProt Q9Z1M0).
T1 sequence (Q9Z1M0 1-595): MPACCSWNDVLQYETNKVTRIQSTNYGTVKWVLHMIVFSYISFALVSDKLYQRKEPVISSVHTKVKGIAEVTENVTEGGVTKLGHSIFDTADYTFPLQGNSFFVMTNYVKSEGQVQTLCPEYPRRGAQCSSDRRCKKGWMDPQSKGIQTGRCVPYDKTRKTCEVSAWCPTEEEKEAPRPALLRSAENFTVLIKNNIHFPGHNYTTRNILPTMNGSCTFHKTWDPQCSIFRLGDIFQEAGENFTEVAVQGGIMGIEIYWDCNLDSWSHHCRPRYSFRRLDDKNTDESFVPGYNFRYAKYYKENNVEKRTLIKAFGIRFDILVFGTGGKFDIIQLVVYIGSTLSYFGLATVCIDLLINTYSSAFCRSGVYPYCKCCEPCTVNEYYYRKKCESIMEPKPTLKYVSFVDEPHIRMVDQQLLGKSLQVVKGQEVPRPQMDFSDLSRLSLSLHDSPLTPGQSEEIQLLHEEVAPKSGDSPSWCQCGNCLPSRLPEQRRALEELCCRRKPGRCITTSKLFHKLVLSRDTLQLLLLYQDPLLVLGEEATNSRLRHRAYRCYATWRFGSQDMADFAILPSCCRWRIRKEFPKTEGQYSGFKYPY
Conditions: cited from earlier work.

Test [1] addresses T2, P2X7 receptors of J774 cells (Mus musculus, UniProt Q9Z1M0).
T2 construct: P2X7 receptors of J774 cells; endogenous in cells; host or cells: J774 macrophage-like cells
T2 sequence (Q9Z1M0 1-595): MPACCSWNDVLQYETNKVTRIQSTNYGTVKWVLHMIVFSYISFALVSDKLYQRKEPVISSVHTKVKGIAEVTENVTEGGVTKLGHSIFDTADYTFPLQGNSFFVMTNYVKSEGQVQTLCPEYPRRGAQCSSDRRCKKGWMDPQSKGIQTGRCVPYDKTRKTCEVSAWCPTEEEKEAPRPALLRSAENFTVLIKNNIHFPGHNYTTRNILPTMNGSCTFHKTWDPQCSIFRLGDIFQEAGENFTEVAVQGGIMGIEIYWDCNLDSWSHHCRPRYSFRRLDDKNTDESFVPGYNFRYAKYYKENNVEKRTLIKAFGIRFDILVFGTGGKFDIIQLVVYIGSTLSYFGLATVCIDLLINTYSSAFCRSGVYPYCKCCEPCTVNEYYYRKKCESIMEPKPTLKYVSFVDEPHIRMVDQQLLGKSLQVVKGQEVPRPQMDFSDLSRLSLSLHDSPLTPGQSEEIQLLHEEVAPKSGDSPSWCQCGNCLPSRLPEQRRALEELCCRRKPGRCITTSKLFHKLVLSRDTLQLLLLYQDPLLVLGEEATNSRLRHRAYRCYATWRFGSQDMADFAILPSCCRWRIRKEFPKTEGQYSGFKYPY
Conditions: previous study (8); cited from earlier work.

Test [2] relates to Mouse bone marrow derived dendritic cells / isogenic spleen derived CD8 lymphocytes. Put plainly: CTL assay, 3H-thymidine uptake of CD8 lymphocytes co-incubated with treated dendritic cells. The format is cell-based. The procedure:
It is shown herein that if a peptide such as ovalbumin is loaded into the IgG opsonized red blood cell resealed ghosts and then incubated with mouse bone derived dendritic cells—the dendritic cells will present class I MHC and induce cytotoxic CD8 lymphocytes as measured by the capacity of these lymphocytes to proliferate in response to co-incubation of the dendritic cells with CD8 lymphocytes. (Table 1)
Table 1: Mouse Bone marrow derived dendritic cells prepared as described in FIG. 3 were incubated with the appropriate isogenic spleen derived CD8 lymphocytes for several hours and then the CTL response was assayed by radiolabeled thymidine incorporation into the lymphocytes indicating a proliferative response mediated via class I MHC.

With `Nc1ncnc2c1ncn2[C@@H]1O[C@H](COP(=O)(O)OP(=O)(O)OP(=O)(O)O)[C@@H](O)[C@H]1O` [ATP^4−], at P2X7 receptors, the “[ATP4-] needed to induce pore formation by P2X7 receptors” value is more than 130 µM.

Consider `Cc1ccc(N(CC(=O)O)CC(=O)O)c(OCCOc2cc3cc(-c4ncc(C(=O)O)o4)oc3cc2N(CC(=O)O)CC(=O)O)c1` [fura 2], for which the “penetration of plasma membrane pores formed by ATP4-activated P2X7 receptors” value in test [1] is “penetrate plasma membrane pores”. As for “Soluble Ova peptide: soluble ovalbumin peptide (amino acids 257–264) (ESIINFEK; UniProt P01012 257-264, looked up, fragment)”, the “CTL Assay- 3H-thymidine uptake (proliferation assay-cpm)” value in test [2] (dendritic cells treated with 100 ng/ml) was 90,000 cpm.

B1: Soluble Ova protein: soluble ovalbumin protein (protein, UniProt P01012 2-386, looked up)
Ovalbumin: GSIGAASMEFCFDVFKELKVHHANENIFYCPIAIMSALAMVYLGAKDSTRTQINKVVRFDKLPGFGDSIEAQCGTSVNVHSSLRDILNQITKPNDVYSFSLASRLYAEERYPILPEYLQCVKELYRGGLEPINFQTAADQARELINSWVESQTNGIIRNVLQPSSVDSQTAMVLVNAIVFKGLWEKAFKDEDTQAMPFRVTEQESKPVQMMYQIGLFRVASMASEKMKILELPFASGTMSMLVLLPDEVSGLEQLESIINFEKLTEWTSSNVMEERKIKVYLPRMKMEEKYNLTSVLMAMGITDVFSSSANLSGISSAESLKISQAVHAAHAEINEAGREVVGSAEAGVDAASVSEEFRADHPFLFCIKHIATNAVLFFGRCVSP
Take B1: the “CTL Assay- 3H-thymidine uptake (proliferation assay-cpm)” value in test [2] (dendritic cells treated with 10 mg/ml) is 160,000 cpm.

The values are drawn from patent publication US7037500B1, “Method for using phagocytic particles and ATP receptors to deliver antigens to MHC class I receptors to induce immunity against microbial pathogens or tumors or to suppress immunity” (The Trustees of Columbia University in the City of New York, priority 2000, dated 2006).
